According to ChEMBL document CHEMBL3603789, “N-Lipidated Peptide Dimers: Effective Antibacterial Agents against Gram-Negative Pathogens through Lipopolysaccharide Permeabilization” (J Med Chem, 2015):
Converted amounts (≈) assume the structure as drawn. The source made the active and inactive calls. No cut-off for these calls is given here. Bridge positions count the residues as written; N and C are the ends. Peptide text beside a SMILES is read from it. I, II: the chains in the order shown. * marks the point of attachment. Octanoyl = CCCCCCCC(=O)*; Butyryl = CCCC(=O)*

What was measured:
[1] = Toxicity in New Zealand white rabbit erythrocytes assessed as hemolytic activity after 60 mins; format: cell-based, Oryctolagus cuniculus; conditions: erythrocyte, 1 h
Klebsiella pneumoniae = experiment: Antibacterial activity against Klebsiella pneumoniae DM4299 after 24 hrs by broth microdilution method; format: functional; conditions: DM4299, 24 h
Pseudomonas aeruginosa [2] = experiment: Antibacterial activity against Pseudomonas aeruginosa DM23155 after 24 hrs by broth microdilution method; format: functional; conditions: DM23155, 24 h
Escherichia coli [3] = experiment: Antibacterial activity against Escherichia coli ATCC 25922 after 24 hrs by broth microdilution method; format: functional; conditions: ATCC 25922, 24 h
Pseudomonas aeruginosa [4] = experiment: Antibacterial activity against Pseudomonas aeruginosa DR18531 after 24 hrs by broth microdilution method; format: functional; conditions: DR18531, 24 h
Pseudomonas aeruginosa [5] = experiment: Antibacterial activity against Pseudomonas aeruginosa DM4150R after 24 hrs by broth microdilution method; format: functional
Pseudomonas aeruginosa [6] = experiment: Antibacterial activity against Pseudomonas aeruginosa DM23257 after 24 hrs by broth microdilution method; format: functional; conditions: DM23257, 24 h
Pseudomonas aeruginosa [7] = experiment: Antibacterial activity against Pseudomonas aeruginosa DM23376 after 24 hrs by broth microdilution method; format: functional; conditions: DM23376, 24 h
Pseudomonas aeruginosa [8] = experiment: Antibacterial activity against Pseudomonas aeruginosa DU14476 after 24 hrs by broth microdilution method; format: functional; conditions: DU14476, 24 h
Pseudomonas aeruginosa [9] = experiment: Antibacterial activity against Pseudomonas aeruginosa DR5790 after 24 hrs by broth microdilution method; format: functional; conditions: DR5790, 24 h
Pseudomonas aeruginosa [10] = experiment: Antibacterial activity against Pseudomonas aeruginosa DR4877 after 24 hrs by broth microdilution method; format: functional; conditions: DR4877, 24 h
Pseudomonas aeruginosa [11] = experiment: Antibacterial activity against Pseudomonas aeruginosa ATCC 9027 after 24 hrs by broth microdilution method; format: functional; conditions: ATCC 9027, 24 h
Pseudomonas aeruginosa [12] = experiment: Antibacterial activity against Pseudomonas aeruginosa ATCC 27853 after 24 hrs by broth microdilution method; format: functional; conditions: ATCC 27853, 24 h
Lipopolysaccharide (LPS) [13] = experiment: Displacement of dansylcadaverine from Escherichia coli 0111:B4 LPS at 15 to 30 uM after 5 mins by high-throughput fluorescence displacement assay
Lipopolysaccharide (LPS) [14] = experiment: Induction of Escherichia coli 0111:B4 LPS neutralization using p-nitroaniline assessed as concentration required to neutralize 50% after 1 hr by limulus amebocyte lysate assay
Pseudomonas aeruginosa [15] = experiment: Induction of cytoplasmic membrane disruption in Pseudomonas aeruginosa DM23155 assessed as membrane integrity at 1 to 2 times MIC after 1 hr by fluorescence assay; format: functional
[16] = Induction of calcein leakage from DOPE/DOPG artificial membrane at 1:32 ratio of compound to lipid by fluorescence assay; format: physicochemical
Pseudomonas aeruginosa [17] = experiment: Antibacterial activity against Pseudomonas aeruginosa DM23155 assessed as log reduction of viable count at 2 times MIC after 30 mins by time-kill assay relative to control; format: functional
Lipopolysaccharide (LPS) [18] = experiment: Induction of Pseudomonas aeruginosa serotype 10 LPS neutralization using p-nitroaniline assessed as concentration required to neutralize 50% after 1 hr by limulus amebocyte lysate assay
Pseudomonas aeruginosa [19] = experiment: Induction of 1-N-phenylnaphthylamine uptake in Pseudomonas aeruginosa DM23155 at 400 uM after 1 hr by fluorescence assay relative to polymyxin B; format: functional
Pseudomonas aeruginosa [20] = experiment: Induction of cytoplasmic membrane depolarization in Pseudomonas aeruginosa DM23155 at 4 times MIC after 1 hr by fluorescence assay; format: functional, organism-based
[21] = Induction of calcein leakage from DOPC artificial membrane at 1:32 ratio of compound to lipid by fluorescence assay; format: physicochemical
Pseudomonas aeruginosa [22] = experiment: Antibacterial activity against Pseudomonas aeruginosa DM23155 assessed as log reduction of viable count MIC up to 24 hrs by time-kill assay; format: functional, organism-based
Pseudomonas aeruginosa [23] = experiment: Antibacterial activity against Pseudomonas aeruginosa DM23155 assessed as log reduction of viable count at 1 to 2 times MIC by time-kill assay relative to control; format: functional, organism-based
Pseudomonas aeruginosa [24] = experiment: Antibacterial activity against Pseudomonas aeruginosa DM23155 assessed as log reduction of viable count at 1 to 2 times MIC after 24 hrs by time-kill assay; format: functional, organism-based
Pseudomonas aeruginosa [25] = experiment: Antibacterial activity against Pseudomonas aeruginosa DM23155 after 24 hrs by checkerboard assay in presence of nalidixic acid; format: functional
Pseudomonas aeruginosa [26] = experiment: Antibacterial activity against Pseudomonas aeruginosa DM23155 after 24 hrs by checkerboard assay in presence of gentamicin; format: functional
Pseudomonas aeruginosa [27] = experiment: Antibacterial activity against Pseudomonas aeruginosa DM23155 after 24 hrs by checkerboard assay in presence of erythromycin; format: functional
Pseudomonas aeruginosa [28] = experiment: Antibacterial activity against Pseudomonas aeruginosa DM23155 after 24 hrs by checkerboard assay in presence of streptomycin; format: functional
Pseudomonas aeruginosa [29] = experiment: Antibacterial activity against Pseudomonas aeruginosa DM23155 after 24 hrs by checkerboard assay in presence of kanamycin; format: functional
Escherichia coli [30] = experiment: Antibacterial activity against Escherichia coli ATCC 25922 after 24 hrs by checkerboard assay in presence of nalidixic acid; format: functional
Escherichia coli [31] = experiment: Antibacterial activity against Escherichia coli ATCC 25922 after 24 hrs by checkerboard assay in presence of gentamicin; format: functional
Escherichia coli [32] = experiment: Antibacterial activity against Escherichia coli ATCC 25922 after 24 hrs by checkerboard assay in presence of erythromycin; format: functional
Escherichia coli [33] = experiment: Antibacterial activity against Escherichia coli ATCC 25922 after 24 hrs by checkerboard assay in presence of streptomycin; format: functional
Escherichia coli [34] = experiment: Antibacterial activity against Escherichia coli ATCC 25922 after 24 hrs by checkerboard assay in presence of kanamycin; format: functional

CC(C)[C@H](NC(=O)[C@H](CCCCN)NC(=O)[C@H](CCCNC(=N)N)NC(=O)CNC(=O)[C@@H](N)CCCNC(=N)N)C(=O)N[C@H](C(=O)N[C@@H](CCCNC(=N)N)C(=O)N[C@@H](CCCNC(=N)N)C(=O)NCCCC[C@H](NC(=O)[C@H](CCCNC(=N)N)NC(=O)[C@H](CCCNC(=N)N)NC(=O)[C@@H](NC(=O)[C@@H](NC(=O)[C@H](CCCCN)NC(=O)[C@H](CCCNC(=N)N)NC(=O)CNC(=O)[C@@H](N)CCCNC(=N)N)C(C)C)C(C)C)C(=O)N[C@@H](CCCCN)C(=O)O)C(C)C (I: H-RGRKVVRRKK-OH / II: H-RGRKVVRR; amide I:9-II:C)
HC10 [1]: > 10000 µg/mL
MIC (Klebsiella pneumoniae): 6 µM (≈ 13.7 µg/mL)
MIC (Pseudomonas aeruginosa [2]): 6 µM (≈ 13.7 µg/mL)
MIC (Escherichia coli [3]): 3 µM (≈ 6.87 µg/mL)
MIC (Pseudomonas aeruginosa [4]): 3 µM (≈ 6.87 µg/mL)
MIC (Pseudomonas aeruginosa [5]): 3 µM (≈ 6.87 µg/mL)
MIC (Pseudomonas aeruginosa [6]): 3 µM (≈ 6.87 µg/mL)
MIC (Pseudomonas aeruginosa [7]): 6 µM (≈ 13.7 µg/mL)
MIC (Pseudomonas aeruginosa [8]): 6 µM (≈ 13.7 µg/mL)
MIC (Pseudomonas aeruginosa [9]): 10 µM (≈ 22.9 µg/mL)
MIC (Pseudomonas aeruginosa [10]): 6 µM (≈ 13.7 µg/mL)
MIC (Pseudomonas aeruginosa [11]): 6 µM (≈ 13.7 µg/mL)
MIC (Pseudomonas aeruginosa [12]): 6 µM (≈ 13.7 µg/mL)
Activity (Lipopolysaccharide (LPS) [13]): 82.4%
EC50 (Lipopolysaccharide (LPS) [14]): > 1000 µM
Activity (Pseudomonas aeruginosa [15]): >80%
Activity [16]: Active
Activity (Pseudomonas aeruginosa [17]): inactive

CCCC(=O)N[C@@H](CCCNC(=N)N)C(=O)NCC(=O)N[C@@H](CCCNC(=N)N)C(=O)N[C@@H](CCCCN)C(=O)NCC(=O)NCC(=O)N[C@@H](CCCNC(=N)N)C(=O)N[C@@H](CCCNC(=N)N)C(=O)NCCCC[C@H](NC(=O)[C@H](CCCNC(=N)N)NC(=O)[C@H](CCCNC(=N)N)NC(=O)CNC(=O)CNC(=O)[C@H](CCCCN)NC(=O)[C@H](CCCNC(=N)N)NC(=O)CNC(=O)[C@H](CCCNC(=N)N)NC(=O)CCC)C(=O)N[C@@H](CCCCN)C(=O)O (I: Butyryl-RGRKGGRRKK-OH / II: Butyryl-RGRKGGRR; amide I:9-II:C)
HC10 [1]: > 10000 µg/mL
MIC (Klebsiella pneumoniae): 6 µM (≈ 13.6 µg/mL)
MIC (Pseudomonas aeruginosa [2]): 6 µM (≈ 13.6 µg/mL)
MIC (Escherichia coli [3]): 3 µM (≈ 6.79 µg/mL)
Activity (Lipopolysaccharide (LPS) [13]): 72.4%
EC50 (Lipopolysaccharide (LPS) [14]): 769 µM
EC50 (Lipopolysaccharide (LPS) [18]): 345 µM
Activity (Pseudomonas aeruginosa [19]): 2.5%

CCCCCCCC(=O)N[C@@H](CCCNC(=N)N)C(=O)NCC(=O)N[C@@H](CCCNC(=N)N)C(=O)N[C@@H](CCCCN)C(=O)NCC(=O)NCC(=O)N[C@@H](CCCNC(=N)N)C(=O)N[C@@H](CCCNC(=N)N)C(=O)NCCCC[C@H](NC(=O)[C@H](CCCNC(=N)N)NC(=O)[C@H](CCCNC(=N)N)NC(=O)CNC(=O)CNC(=O)[C@H](CCCCN)NC(=O)[C@H](CCCNC(=N)N)NC(=O)CNC(=O)[C@H](CCCNC(=N)N)NC(=O)CCCCCCC)C(=O)N[C@@H](CCCCN)C(=O)O (I: Octanoyl-RGRKGGRRKK-OH / II: Octanoyl-RGRKGGRR; amide I:9-II:C)
HC10 [1]: > 10000 µg/mL
MIC (Klebsiella pneumoniae): 3 µM (≈ 7.12 µg/mL)
MIC (Pseudomonas aeruginosa [2]): 3 µM (≈ 7.12 µg/mL)
MIC (Escherichia coli [3]): 3 µM (≈ 7.12 µg/mL)
MIC (Pseudomonas aeruginosa [4]): 3 µM (≈ 7.12 µg/mL)
MIC (Pseudomonas aeruginosa [5]): 3 µM (≈ 7.12 µg/mL)
MIC (Pseudomonas aeruginosa [6]): 6 µM (≈ 14.2 µg/mL)
MIC (Pseudomonas aeruginosa [7]): 3 µM (≈ 7.12 µg/mL)
MIC (Pseudomonas aeruginosa [8]): 3 µM (≈ 7.12 µg/mL)
MIC (Pseudomonas aeruginosa [9]): 3 µM (≈ 7.12 µg/mL)
MIC (Pseudomonas aeruginosa [10]): 3 µM (≈ 7.12 µg/mL)
MIC (Pseudomonas aeruginosa [11]): 3 µM (≈ 7.12 µg/mL)
MIC (Pseudomonas aeruginosa [12]): 3 µM (≈ 7.12 µg/mL)
Activity (Lipopolysaccharide (LPS) [13]): 112%
EC50 (Lipopolysaccharide (LPS) [14]): 117 µM
Activity (Pseudomonas aeruginosa [19]): 20%
Activity (Pseudomonas aeruginosa [20]): Active
Activity [21]: Active
FC (Pseudomonas aeruginosa [17]): 3
Activity (Pseudomonas aeruginosa [22]): Dose-dependent effect
Activity (Pseudomonas aeruginosa [23]): Active
Activity (Pseudomonas aeruginosa [24]): Active
fractional inhibitory concentration index (FICI) (Pseudomonas aeruginosa [25]): 0.56
fractional inhibitory concentration index (FICI) (Pseudomonas aeruginosa [26]): 0.38
fractional inhibitory concentration index (FICI) (Pseudomonas aeruginosa [27]): 0.38
fractional inhibitory concentration index (FICI) (Pseudomonas aeruginosa [28]): 0.56
fractional inhibitory concentration index (FICI) (Pseudomonas aeruginosa [29]): 0.56
fractional inhibitory concentration index (FICI) (Escherichia coli [30]): 0.56
fractional inhibitory concentration index (FICI) (Escherichia coli [31]): 0.38
fractional inhibitory concentration index (FICI) (Escherichia coli [32]): 1
fractional inhibitory concentration index (FICI) (Escherichia coli [33]): 0.5
fractional inhibitory concentration index (FICI) (Escherichia coli [34]): 0.56
